According to US20240016781A1, “TREATMENT OF KRAS MUTANT CANCERS” (MEI Pharma, Inc., priority 2020, published 2024):
Read-outs that look alike come from different tables or passages of the source.

Assays:
Solid Tumors = experiment: Monotherapy Phase 1 study in solid tumors, 2 weeks on/1 week off schedule; type: in vivo, human
[1] = PK of voruciclib, 2 weeks of daily dosing followed by 1 week without dosing in a 21-day cycle (Table 3); type: in vivo, human; details: for Accumulation Ratio (AUC0-24 h): Day 13/Day 1, 2 weeks daily dosing/1 week off; for AUC(0-inf) / Cmax / half-life / AUC(0-t) / Vd/F / Tmax: human, plasma, oral; for Vd/F: read-out: Vz/F; for Tmax: median
Excerpt: Voruciclib half life is designated as t½ in the tables (expressed in hours).
Voruciclib volume of distribution is designated as Vz/F (expressed in liters).

[2] = 2 weeks on/i week off schedule, 75 to 850 mg, 29 pts
[3] = Phase 1 monotherapy studies in solid tumors (both schedules)
[4] = 75 mg, Day 1, 2 weeks daily dosing/1 week off, mean
[5] = 75 mg, Day 13, 2 weeks daily dosing/1 week off, mean
[6] = 150 mg, Day 1, 2 weeks daily dosing/1 week off, mean
[7] = 150 mg, Day 13, 2 weeks daily dosing/1 week off, mean
[8] = 300 mg, Day 1, 2 weeks daily dosing/1 week off, mean
[9] = 300 mg, Day 13, 2 weeks daily dosing/1 week off, n = 1
[10] = 600 mg, Day 1, 2 weeks daily dosing/1 week off, mean
[11] = 600 mg, Day 13, 2 weeks daily dosing/1 week off, mean
[12] = 850 mg, Day 1, 2 weeks daily dosing/1 week off, mean
[13] = 850 mg, Day 13, 2 weeks daily dosing/1 week off, mean

SMILES: CN1CC[C@@H](c2c(O)cc(O)c3c(=O)cc(-c4ccc(C(F)(F)F)cc4Cl)oc23)[C@@H]1CO [Voruciclib, (+)-trans-2-(2-Chloro-4-trifluoromethylphenyl)-5,7-dihydroxy-8-(2-hydroxymethyl-1-methylpyrrolidin-3-yl)-chromen-4-one]
- best response (Solid Tumors; [2]): 1 PR and 8 SD lasting 2 to 6 months
- disease control rate (Solid Tumors; [2]): 41%
- most common AEs (Solid Tumors; [3]): most common AEs involved GI tract
- myelosuppression (Solid Tumors; [3]): no evidence of myelosuppression
- Accumulation Ratio (AUC0-24 h) ([1]; 75 mg, mean): 2.937
- Accumulation Ratio (AUC0-24 h) ([1]; 150 mg, mean): 2.129
- Accumulation Ratio (AUC0-24 h) ([1]; 300 mg, mean): 2.602
- Accumulation Ratio (AUC0-24 h) ([1]; 600 mg, mean): 2.064
- Accumulation Ratio (AUC0-24 h) ([1]; 850 mg, mean): 3.139
- AUC(0-inf) [1, 4]: 4210 ng·h/mL
- Cmax [1, 4]: 193 ng/mL
- half-life [1, 4]: 21.7 h
- AUC(0-t) ([1]; 75 mg, Day 1, 2 weeks daily dosing/1 week off, mean, read-out: AUC0-24): 2280 ng·h/mL
- AUC(0-t) ([1]; 75 mg, Day 1, 2 weeks daily dosing/1 week off, mean, read-out: AUC0-t): 2280 ng·h/mL
- Vd/F [1, 4]: 1280 L
- Tmax ([1]; 75 mg, Day 1, 2 weeks daily dosing/1 week off): 4 h
- AUC(0-inf) [1, 5]: 8660 ng·h/mL
- Cmax [1, 5]: 313 ng/mL
- half-life [1, 5]: 16.9 h
- AUC(0-t) ([1]; 75 mg, Day 13, 2 weeks daily dosing/1 week off, mean, read-out: AUC0-24): 5290 ng·h/mL
- AUC(0-t) ([1]; 75 mg, Day 13, 2 weeks daily dosing/1 week off, mean, read-out: AUC0-t): 5290 ng·h/mL
- Vd/F [1, 5]: 349 L
- Tmax ([1]; 75 mg, Day 13, 2 weeks daily dosing/1 week off): 4 h
- AUC(0-inf) [1, 6]: 15800 ng·h/mL
- Cmax [1, 6]: 456 ng/mL
- half-life [1, 6]: 32.5 h
- AUC(0-t) ([1]; 150 mg, Day 1, 2 weeks daily dosing/1 week off, mean, read-out: AUC0-24): 6980 ng·h/mL
- AUC(0-t) ([1]; 150 mg, Day 1, 2 weeks daily dosing/1 week off, mean, read-out: AUC0-t): 6980 ng·h/mL
- Vd/F [1, 6]: 1650 L
- Tmax ([1]; 150 mg, Day 1, 2 weeks daily dosing/1 week off): 4 h
- AUC(0-inf) [1, 7]: 28200 ng·h/mL
- Cmax [1, 7]: 896 ng/mL
- half-life [1, 7]: 26.1 h
- AUC(0-t) ([1]; 150 mg, Day 13, 2 weeks daily dosing/1 week off, mean, read-out: AUC0-24): 13000 ng·h/mL
- AUC(0-t) ([1]; 150 mg, Day 13, 2 weeks daily dosing/1 week off, mean, read-out: AUC0-t): 13000 ng·h/mL
- Vd/F [1, 7]: 459 L
- Tmax ([1]; 150 mg, Day 13, 2 weeks daily dosing/1 week off): 4 h
- AUC(0-inf) [1, 8]: 148000 ng·h/mL
- Cmax [1, 8]: 1000 ng/mL
- half-life [1, 8]: 138 h
- AUC(0-t) ([1]; 300 mg, Day 1, 2 weeks daily dosing/1 week off, mean, read-out: AUC0-24): 15700 ng·h/mL
- AUC(0-t) ([1]; 300 mg, Day 1, 2 weeks daily dosing/1 week off, mean, read-out: AUC0-t): 15700 ng·h/mL
- Vd/F [1, 8]: 3980 L
- Tmax ([1]; 300 mg, Day 1, 2 weeks daily dosing/1 week off): 6 h
- Cmax ([1]; 300 mg, Day 13, 2 weeks daily dosing/1 week off, mean): 2100 ng/mL
- AUC(0-t) ([1]; 300 mg, Day 13, 2 weeks daily dosing/1 week off, mean, read-out: AUC0-24): 40400 ng·h/mL
- AUC(0-t) ([1]; 300 mg, Day 13, 2 weeks daily dosing/1 week off, mean, read-out: AUC0-t): 40400 ng·h/mL
- Tmax ([1]; 300 mg, Day 13, 2 weeks daily dosing/1 week off): 12 h
- AUC(0-inf) [1, 9]: 59300 ng·h/mL
- half-life [1, 9]: 16.2 h
- Vd/F [1, 9]: 185 L
- AUC(0-inf) [1, 10]: 61500 ng·h/mL
- Cmax [1, 10]: 1630 ng/mL
- half-life [1, 10]: 32.5 h
- AUC(0-t) ([1]; 600 mg, Day 1, 2 weeks daily dosing/1 week off, mean, read-out: AUC0-24): 24800 ng·h/mL
- AUC(0-t) ([1]; 600 mg, Day 1, 2 weeks daily dosing/1 week off, mean, read-out: AUC0-t): 24800 ng·h/mL
- Vd/F [1, 10]: 1550 L
- Tmax ([1]; 600 mg, Day 1, 2 weeks daily dosing/1 week off): 4 h
- AUC(0-inf) [1, 11]: 86000 ng·h/mL
- Cmax [1, 11]: 2940 ng/mL
- half-life [1, 11]: 19 h
- AUC(0-t) ([1]; 600 mg, Day 13, 2 weeks daily dosing/1 week off, mean, read-out: AUC0-24): 43500 ng·h/mL
- AUC(0-t) ([1]; 600 mg, Day 13, 2 weeks daily dosing/1 week off, mean, read-out: AUC0-t): 43500 ng·h/mL
- Vd/F [1, 11]: 394 L
- Tmax ([1]; 600 mg, Day 13, 2 weeks daily dosing/1 week off): 4 h
- AUC(0-inf) [1, 12]: 109000 ng·h/mL
- Cmax [1, 12]: 1730 ng/mL
- half-life [1, 12]: 50 h
- AUC(0-t) ([1]; 850 mg, Day 1, 2 weeks daily dosing/1 week off, mean, read-out: AUC0-24): 31400 ng·h/mL
- AUC(0-t) ([1]; 850 mg, Day 1, 2 weeks daily dosing/1 week off, mean, read-out: AUC0-t): 31400 ng·h/mL
- Vd/F [1, 12]: 2150 L
- Tmax ([1]; 850 mg, Day 1, 2 weeks daily dosing/1 week off): 9 h
- AUC(0-inf) [1, 13]: 170000 ng·h/mL
- Cmax [1, 13]: 4450 ng/mL
